ChEMBL document CHEMBL4011606, “Synthesis and antiplasmodial activity of novel indoleamide derivatives bearing sulfonamide and triazole pharmacophores” (Eur J Med Chem, 2017)

Key:
[1] = Resistance index, ratio of IC50 for chloroquine-resistant Plasmodium falciparum K1 to IC50 for chloroquine-sensitive Plasmodium falciparum 3D7; type: functional
Plasmodium falciparum [2] = assay: Antiplasmodial activity against chloroquine-resistant Plasmodium falciparum K1 infected in human erythrocytes measured after 72 hrs by SYBR green 1 dye based fluorescence assay; type: functional, cell-based; settings: K1, 72 h
Plasmodium falciparum [3] = assay: Antiplasmodial activity against chloroquine-sensitive Plasmodium falciparum 3D7 infected in human erythrocytes measured after 72 hrs by SYBR green 1 dye based fluorescence assay; type: functional, cell-based; settings: 3D7, 72 h
[4] = Cytotoxicity against African green monkey Vero cells measured after 3 days by resazurin dye based fluorescence assay; type: cell-based; settings: chlorocebus sabaeus
[5] = Selectivity index, ratio of CC50 for African green monkey Vero cells to IC50 for chloroquine-resistant Plasmodium falciparum K1; type: toxicity; settings: read-out: Ratio CC50/IC50
[6] = Selectivity index, ratio of CC50 for African green monkey Vero cells to IC50 for chloroquine-sensitive Plasmodium falciparum 3D7; type: toxicity; settings: read-out: Ratio CC50/IC50

SMILES	Ratio IC50 [1]	IC50 (Plasmodium falciparum [2])	IC50 (Plasmodium falciparum [3])	CC50 at 72 h [4]	selectivity ratio [5]	selectivity ratio [6]
CC(C)(C)c1ccc(S(=O)(=O)n2cc(CCC(=O)NC34CC5CC(CC(C5)C3)C4)c3ccccc32)cc1	1.06	6.19 µM	5.8 µM			
O=C(Cn1cc(Cn2cc(CCCC(=O)NC3CCCCCC3)c3ccccc32)nn1)Nc1ccc(Cl)cc1	> 1	> 10 µM	> 10 µM			
CCN(CC)CCCC(C)Nc1ccnc2cc(Cl)ccc12 (stereo not given) [CHLOROQUINE]				226 µM		
C=CCn1cc(CCCC(=O)NC23CC4CC(CC(C4)C2)C3)c2ccccc21	1.5	7.56 µM	5.04 µM			
O=C(CCCc1cn(S(=O)(=O)c2ccccc2)c2ccccc12)NC1CCCCCC1	0.82	6.06 µM	7.37 µM			
CC(C)(C)c1ccc(S(=O)(=O)n2cc(CCC(=O)NC3CCCCCC3)c3ccccc32)cc1	0.92	5.76 µM	6.24 µM			
O=C(Cc1c[nH]c2ccccc12)NCc1cn(CC(=O)Nc2ccc(Br)cc2)nn1	> 1.14	> 10 µM	8.77 µM			
Cn1cc(CCCC(=O)NC2CCCCCC2)c2ccccc21	> 1	> 10 µM	> 10 µM			
CC(C)(C)c1ccc(S(=O)(=O)n2cc(CCCC(=O)NC34CC5CC(CC(C5)C3)C4)c3ccccc32)cc1	0.9	1.69 µM	1.87 µM	> 250 µM	> 147	> 133
O=C(Cn1cc(Cn2cc(CCCC(=O)NC3CCCCCC3)c3ccccc32)nn1)Nc1ccc(Br)cc1	< 0.87	8.7 µM	> 10 µM			
CCCn1cc(CCCC(=O)NC23CC4CC(CC(C4)C2)C3)c2ccccc21	1.53	7.37 µM	4.79 µM			
O=C(Cc1c[nH]c2ccccc12)NCc1cn(CC(=O)Nc2ccc(F)cc2)nn1	1.43	7.38 µM	5.16 µM			
Cc1ccc(NC(=O)Cn2cc(CNC(=O)Cc3c[nH]c4ccccc34)nn2)cc1C	0.87	6.46 µM	7.02 µM			
Cc1ccc(NC(=O)Cn2cc(Cn3cc(CCCC(=O)NC45CC6CC(CC(C6)C4)C5)c4ccccc43)nn2)cc1C	< 0.25	2.5 µM	> 10 µM	> 250 µM	> 100	> 25
O=C(Cn1cc(Cn2cc(CCCC(=O)NC34CC5CC(CC(C5)C3)C4)c3ccccc32)nn1)Nc1ccc(Br)cc1	< 0.87	8.78 µM	> 10 µM			
C=CCn1cc(CCCC(=O)NC2CCCCCC2)c2ccccc21	> 1	> 10 µM	> 10 µM			
O=C(Cn1cc(Cn2cc(CCCC(=O)NC3CCCCCC3)c3ccccc32)nn1)Nc1ccc(F)c(Cl)c1	0.87	8.64 µM	9.9 µM			
O=C(Cn1cc(Cn2cc(CCCC(=O)NC34CC5CC(CC(C5)C3)C4)c3ccccc32)nn1)Nc1ccc(Cl)cc1	> 1	> 10 µM	> 10 µM			
CC(C)(C)c1ccc(S(=O)(=O)n2cc(CCCC(=O)NC3C4CC5CC(C4)CC3C5)c3ccccc32)cc1 (stereo not given)	1.27	4.26 µM	3.35 µM	> 250 µM	> 58	> 74
O=C(CCCc1cn(Cc2ccccc2)c2ccccc12)NC1CCCCCC1	> 1.04	> 10 µM	9.56 µM			
O=C(CCCc1cn(S(=O)(=O)c2ccccc2)c2ccccc12)NC12CC3CC(CC(C3)C1)C2	0.48	2.46 µM	5.04 µM	> 250 µM	> 101	> 49
O=C(CCCc1cn(Cc2ccccc2)c2ccccc12)NC12CC3CC(CC(C3)C1)C2	1.16	4.2 µM	3.6 µM	> 250 µM	> 59	> 69
O=C(CCCc1cn(Cc2cn(Cc3ccccc3)nn2)c2ccccc12)NC1CCCCCC1	> 1	> 10 µM	> 10 µM			
O=C(Cn1cc(Cn2cc(CCCC(=O)NC3CCCCCC3)c3ccccc32)nn1)Nc1ccc(F)cc1	0.96	7.82 µM	8.12 µM			
O=C(CCCc1cn(Cc2cn(Cc3ccccc3)nn2)c2ccccc12)NC12CC3CC(CC(C3)C1)C2	> 4.62	> 10 µM	2.16 µM	> 250 µM	> 25	> 115
O=C(Cc1c[nH]c2ccccc12)NCc1cn(CC(=O)Nc2ccc(I)cc2)nn1	0.58	2.25 µM	3.83 µM	> 250 µM	> 111	> 65

SMILES	Ratio IC50 [1]	IC50 (Plasmodium falciparum [2])	IC50 (Plasmodium falciparum [3])	CC50 at 72 h [4]	selectivity ratio [5]	selectivity ratio [6]
O=C(CCCc1cn(Cc2ccc(Br)cc2)c2ccccc12)NC12CC3CC(CC(C3)C1)C2	1.06	3.35 µM	3.15 µM	> 250 µM	> 74	> 79
Cc1ccc(S(=O)(=O)n2cc(CCCC(=O)NC3CCCCCC3)c3ccccc32)cc1	0.96	3.27 µM	3.38 µM	> 250 µM	> 76	> 73
O=C(CCCc1c[nH]c2ccccc12)NC1CCCCCC1	> 1	> 10 µM	> 10 µM			
O=C(Cc1c[nH]c2ccccc12)NCc1cn(CC(=O)Nc2ccccc2Cl)nn1	> 1	> 10 µM	> 10 µM			
O=C(CCCc1cn(Cc2ccc(Cl)cc2)c2ccccc12)NC12CC3CC(CC(C3)C1)C2	1.55	5.3 µM	3.4 µM	> 250 µM	> 47	> 73
Cc1cc(S(=O)(=O)n2cc(CCCC(=O)NC3CCCCCC3)c3ccccc32)c(C)cc1Cl	1	2.19 µM	2.17 µM	> 250 µM	> 114	> 115
O=C(Cc1c[nH]c2ccccc12)NCc1cn(CC(=O)Nc2ccc(Cl)cc2)nn1	> 1	> 10 µM	> 10 µM			
Cn1cc(CCCC(=O)NC23CC4CC(CC(C4)C2)C3)c2ccccc21	> 1.02	> 10 µM	9.73 µM			
O=C(CCCc1c[nH]c2ccccc12)NC12CC3CC(CC(C3)C1)C2	> 1	> 10 µM	> 10 µM			
O=C(CCCc1cn(Cc2ccc(Br)cc2)c2ccccc12)NC1CCCCCC1	> 1	> 10 µM	> 10 µM			
O=C(CCCc1cn(S(=O)(=O)c2ccc(F)cc2)c2ccccc12)NC12CC3CC(CC(C3)C1)C2	1.26	3.73 µM	2.94 µM	> 250 µM	> 67	> 85
Cc1ccc(NC(=O)Cn2cc(Cn3cc(CCCC(=O)NC4CCCCCC4)c4ccccc43)nn2)cc1C	> 1	> 10 µM	> 10 µM			
Cc1cc(S(=O)(=O)n2cc(CCCC(=O)NC34CC5CC(CC(C5)C3)C4)c3ccccc32)c(C)cc1Cl	1.15	2.12 µM	1.93 µM	> 250 µM	> 112	> 129
O=C(CCCc1cn(S(=O)(=O)c2cccc3ccccc23)c2ccccc12)NC1CCCCCC1	0.78	3.68 µM	4.67 µM	> 250 µM	> 67	> 53
O=C(Cn1cc(Cn2cc(CCCC(=O)NC34CC5CC(CC(C5)C3)C4)c3ccccc32)nn1)Nc1ccc(I)cc1	> 1	> 10 µM	> 10 µM			
O=C(Cn1cc(Cn2cc(CCCC(=O)NC3CCCCCC3)c3ccccc32)nn1)Nc1ccccc1Cl	> 1	> 10 µM	> 10 µM			
CCCCCCCn1cc(CCCC(=O)NC23CC4CC(CC(C4)C2)C3)c2ccccc21	1.84	3.53 µM	1.91 µM	> 250 µM	> 70	> 130
O=C(CCCc1cn(CCN2CCCC2)c2ccccc12)NC12CC3CC(CC(C3)C1)C2	1.37	9.67 µM	7.03 µM			
O=C(CCCc1cn(Cc2ccc(F)cc2)c2ccccc12)NC12CC3CC(CC(C3)C1)C2	1.59	3.5 µM	2.2 µM	> 250 µM	> 71	> 113
O=C(CCCc1cn(CCN2CCCCC2)c2ccccc12)NC12CC3CC(CC(C3)C1)C2	> 1.37	> 10 µM	5.63 µM			
O=C(CCCc1cn(S(=O)(=O)c2cccs2)c2ccccc12)NC1CCCCCC1	< 0.55	5.55 µM	> 10 µM			
O=C(CCCc1cn(Cc2ccc(Cl)cc2)c2ccccc12)NC1CCCCCC1	> 1	> 10 µM	> 10 µM			
O=C(Cc1c[nH]c2ccccc12)NCc1cn(CC(=O)Nc2ccc(F)c(Cl)c2)nn1	> 1	> 10 µM	> 10 µM			
O=C(Cn1cc(Cn2cc(CCCC(=O)NC34CC5CC(CC(C5)C3)C4)c3ccccc32)nn1)Nc1ccc(F)cc1	< 0.86	8.68 µM	> 10 µM			
Cc1ccc(S(=O)(=O)n2cc(CCCC(=O)NC34CC5CC(CC(C5)C3)C4)c3ccccc32)cc1	0.98	3.95 µM	3.99 µM	> 250 µM	> 63	> 62
O=C(Cn1cc(Cn2cc(CCCC(=O)NC3CCCCCC3)c3ccccc32)nn1)Nc1ccc(I)cc1	> 1	> 10 µM	> 10 µM			
